Assay: Tissue distribution in CT26 allograft bearing Balb/c mice (ICP-MS for 3a, gamma counting for 3b)
Assay type: in vivo
Details: 30 mg/kg i.v.
Protocol: UV/Vis spectra were recorded on a Hitachi U-2000 Dual Beam spectrophotometer. Sample activities were measured on an ISOMED 2010 dose calibrator. For centrifugation during synthesis, a Fisherbrand^TM Mini-Centrifuge from Fisher Scientific was used. Radioactive organ samples were measured on Perkin Elmer Wizard^2 gamma counter. Non-radioactive organ samples were prepared, and the ruthenium content was quantified with ICP-MS. The exact procedure including instrument information can be found in the Supplementary Materials.
For the evaluation of organ distribution, CT26 cells (5 × 10^5 in serum-free medium) were injected subcutaneously into the right flank of Balb/c mice. Animals were controlled for distress development every day and tumor size was assessed regularly using caliper measurements. CT26 cells were inoculated 10 days prior to drug application. Tumor volume was calculated using the formula: (length × width^2); the tumors reached a size of about 500 mm^3. Animals were treated once intravenously (i.v.) via tail-vein injection with 3a or 3b at a dose of 30 mg/kg (dissolved in 0.9% NaCl, 0.6 mg/100 µL/20 g mouse) and a specific activity of 0.64–1.36 MBq/mg for compound 3b. The mice were anesthetized and sacrificed by cervical fracture 4, 24, 48 and 72 h p.i., with n ≥ 2 (3a) and n ≥ 3 (3b) for each time point. Samples of tumor, liver, kidney, muscle, heart, lung, spleen, pancreas, stomach, colon, small intestine, brain, bone, and blood were collected from each mouse. After clotting at RT, serum was isolated from the collected blood samples by centrifugation at 3000 rpm for 10 min twice and stored together with the collected tissue samples at −20 °C. Finally, the ruthenium content was quantified by ICP-MS in the case of the non-radioactive BOLD-100 (3a) and via gamma counting for [^103Ru]BOLD-100 (3b).
An Agilent 7800 ICP-MS (Agilent Technologies, Tokyo, Japan) was being employed, which was equipped with an Agilent SPS 4 autosampler (Agilent Technologies, Tokyo, Japan) and a MicroMist nebulizer at a sample uptake rate of approx. 0.2 mL/min. The Agilent MassHunter software package (Workstation Software, Version C.01.04, 2018) was used for data evaluation. The instrumental parameters […]
Reference source not found..
Ta ble S1: Instrumental parameters for the ICP-MS measurements […]
Spray chamber Scott double-pass
Spraying chamber temp. 2°C
Nebulizer gas 1.06 L min−1
Auxiliary gas 0.90 L min−1
The instrumental limit of quantification (LOQ) was determined at the start of the measurement by […]
LOQ = blank average + 10*STD
Blank corrections were performed for all the samples. Robustness was ensured by tuning the ICP-MS on a daily basis, by using an internal standard (115In) and measuring calibration standards for each […]
Ultrapure water (18.2 MΩ cm, ELGA Water purification system, Purelab Ultra MK 2, UK or 18.2 MΩ cm, Milli-Q Advantage, Darmstadt, Germany), HNO3 (≥69%, Rotipuran Supra, Carl Roth, Karlsruhe, Germany) and H2O2 (30%, Suprapur, Merck, Darmstadt, Germany) were used for all dilutions for ICP-MS measurements. The Ru standard solution was purchased from Labkings (Hilversum, The Netherlands).
For the digestion, approx. 25–50 mg of each organ sample were weighed into PFA-tubes, with 2 mL HNO3 and 100 µL H2O2 being added. The solutions were then placed on a hot plate and heated up for 6 hours using a temperature program with a maximum temperature of 200 °C. After cooling down, the liquids were transferred directly to 15 mL tubes with the remaining solution being removed from the PFA tubes by washing twice with 4 mL ultrapure water, resulting in a final volume of about 10 mL. By writing down the total weight of the resulting liquid, the dilution factor could be calculated.

## [Cl][Ru-]([Cl])([Cl])[Cl].[Na+].c1ccc2[nH]ncc2c1.c1ccc2[nH]ncc2c1 [3a, sodium trans-[tetrachloridobis(indazole)ruthenate(III)]]
4 h p.i.
  %ID/g tissue Blood cells: 10.70 ± 4.38 %ID/g tissue
  %ID/g tissue Bones: 1.08 ± 0.25 %ID/g tissue
  %ID/g tissue Brain: 0.36 ± 0.19 %ID/g tissue
  %ID/g tissue Colon: 3.53 ± 1.27 %ID/g tissue
  %ID/g tissue Heart: 5.81 ± 0.94 %ID/g tissue
  %ID/g tissue Kidneys: 11.58 ± 1.35 %ID/g tissue
  %ID/g tissue Liver: 12.90 ± 1.14 %ID/g tissue
  %ID/g tissue Lung: 8.24 ± 2.06 %ID/g tissue
  %ID/g tissue Muscle: 0.82 ± 0.18 %ID/g tissue
  %ID/g tissue Pancreas: 5.14 ± 2.01 %ID/g tissue
  %ID/g tissue Serum: 24.85 ± 0.85 %ID/g tissue
  %ID/g tissue Small intestine: 6.38 ± 3.36 %ID/g tissue
  %ID/g tissue Spleen: 4.23 ± 0.68 %ID/g tissue
  %ID/g tissue Stomach: 2.57 ± 0.29 %ID/g tissue
  %ID/g tissue Tumor: 4.43 ± 1.20 %ID/g tissue
24 h p.i.
  %ID/g tissue Blood cells: 3.43 ± 0.83 %ID/g tissue
  %ID/g tissue Bones: 0.79 ± 0.20 %ID/g tissue
  %ID/g tissue Brain: 0.15 ± 0.07 %ID/g tissue
  %ID/g tissue Colon: 2.58 ± 0.13 %ID/g tissue
  %ID/g tissue Heart: 3.66 ± 1.31 %ID/g tissue
  %ID/g tissue Kidneys: 10.02 ± 1.09 %ID/g tissue
  %ID/g tissue Liver: 9.84 ± 0.60 %ID/g tissue
  %ID/g tissue Lung: 4.84 ± 0.53 %ID/g tissue
  %ID/g tissue Muscle: 0.99 ± 0.28 %ID/g tissue
  %ID/g tissue Pancreas: 2.81 ± 0.68 %ID/g tissue
  %ID/g tissue Serum: 9.26 ± 1.03 %ID/g tissue
  %ID/g tissue Small intestine: 3.78 ± 0.51 %ID/g tissue
  %ID/g tissue Spleen: 4.02 ± 0.71 %ID/g tissue
  %ID/g tissue Stomach: 2.13 ± 0.17 %ID/g tissue
  %ID/g tissue Tumor: 8.34 ± 1.36 %ID/g tissue
48 h p.i.
  %ID/g tissue Blood cells: 1.96 ± 1.09 %ID/g tissue
  %ID/g tissue Bones: 0.88 ± 0.16 %ID/g tissue
  %ID/g tissue Brain: 0.10 ± 0.02 %ID/g tissue
  %ID/g tissue Colon: 1.68 ± 0.58 %ID/g tissue
  %ID/g tissue Heart: 3.28 ± 0.63 %ID/g tissue
  %ID/g tissue Kidneys: 7.34 ± 4.13 %ID/g tissue
  %ID/g tissue Liver: 8.96 ± 3.11 %ID/g tissue
  %ID/g tissue Lung: 4.64 ± 0.94 %ID/g tissue
  %ID/g tissue Muscle: 0.66 ± 0.16 %ID/g tissue
  %ID/g tissue Pancreas: 3.18 ± 0.85 %ID/g tissue
  %ID/g tissue Serum: 6.29 ± 1.02 %ID/g tissue
  %ID/g tissue Small intestine: 3.28 ± 2.02 %ID/g tissue
  %ID/g tissue Spleen: 4.59 ± 1.57 %ID/g tissue
  %ID/g tissue Stomach: 1.76 ± 0.77 %ID/g tissue
  %ID/g tissue Tumor: 7.64 ± 1.78 %ID/g tissue
72 h p.i.
  %ID/g tissue Blood cells: 0.67 ± 0.86 %ID/g tissue
  %ID/g tissue Bones: 1.12 ± 0.35 %ID/g tissue
  %ID/g tissue Brain: 0.11 ± 0.00 %ID/g tissue
  %ID/g tissue Colon: 1.63 ± 0.00 %ID/g tissue
  %ID/g tissue Heart: 2.37 ± 1.97 %ID/g tissue
  %ID/g tissue Kidneys: 6.78 ± 0.18 %ID/g tissue
  %ID/g tissue Liver: 7.90 ± 0.35 %ID/g tissue
  %ID/g tissue Lung: 4.41 ± 1.94 %ID/g tissue
  %ID/g tissue Muscle: 0.84 ± 0.02 %ID/g tissue
  %ID/g tissue Pancreas: 2.19 ± 0.01 %ID/g tissue
  %ID/g tissue Serum: 1.41 ± 1.56 %ID/g tissue
  %ID/g tissue Spleen: 3.92 ± 1.93 %ID/g tissue
  %ID/g tissue Stomach: 1.40 ± 0.01 %ID/g tissue
  %ID/g tissue Tumor: 5.32 ± 1.22 %ID/g tissue

Reference: paper PMC10674160, “Synthesis and Preclinical Evaluation of Radiolabeled [^103Ru]BOLD-100” (Pharmaceutics, 2023)
